Assay results from ChEMBL document CHEMBL5303573, “Mapping human microbiome drug metabolism by gut bacteria and their genes” (Nature, 2019).

Columns and labels:
[1] = The drug is tested on Bifidobacterium breve strain: DSM20213 for biotransformation. The drug concentrations were measured before and after a 12-h incubation by liquid-chromatography-coupled mass spectrometry (LC–MS); settings: 2 µM
[2] = The drug is tested on Eggerthella lenta strain: ATCC25559 for biotransformation. The drug concentrations were measured before and after a 12-h incubation by liquid-chromatography-coupled mass spectrometry (LC–MS); settings: 2 µM
[3] = The drug is tested on Alistipes indistinctus strain: DSM22520 for biotransformation. The drug concentrations were measured before and after a 12-h incubation by liquid-chromatography-coupled mass spectrometry (LC–MS); settings: 2 µM
[4] = The drug is tested on Bacteroides cellulosilyticus strain: DSM14838 for biotransformation. The drug concentrations were measured before and after a 12-h incubation by liquid-chromatography-coupled mass spectrometry (LC–MS); settings: 2 µM
[5] = The drug is tested on Bacteroides coprophilus strain: DSM18228 for biotransformation. The drug concentrations were measured before and after a 12-h incubation by liquid-chromatography-coupled mass spectrometry (LC–MS); settings: 2 µM
[6] = The drug is tested on Bacteroides fragilis strain: HMW615 for biotransformation. The drug concentrations were measured before and after a 12-h incubation by liquid-chromatography-coupled mass spectrometry (LC–MS); settings: 2 µM
[7] = The drug is tested on Bacteroides ovatus strain: ATCC8483 for biotransformation. The drug concentrations were measured before and after a 12-h incubation by liquid-chromatography-coupled mass spectrometry (LC–MS); settings: 2 µM
[8] = The drug is tested on Bacteroides uniformis strain: ATCC8492 for biotransformation. The drug concentrations were measured before and after a 12-h incubation by liquid-chromatography-coupled mass spectrometry (LC–MS); settings: 2 µM
[9] = The drug is tested on Bacteroides vulgatus strain: ATCC8482 for biotransformation. The drug concentrations were measured before and after a 12-h incubation by liquid-chromatography-coupled mass spectrometry (LC–MS); settings: phocaeicola vulgatus, 2 µM
[10] = The drug is tested on Bacteroides xylanisolvens strain: DSM18836 for biotransformation. The drug concentrations were measured before and after a 12-h incubation by liquid-chromatography-coupled mass spectrometry (LC–MS); settings: 2 µM
[11] = The drug is tested on Clostridium asparagiforme strain: DSM15981 for biotransformation. The drug concentrations were measured before and after a 12-h incubation by liquid-chromatography-coupled mass spectrometry (LC–MS); assay type: ADME; design: dose 2 uM, timepoint 0 vs 12 hours; settings: enterocloster asparagiformis, 2 µM
[12] = The drug is tested on Dorea formicigenerans strain: ATCC27755 for biotransformation. The drug concentrations were measured before and after a 12-h incubation by liquid-chromatography-coupled mass spectrometry (LC–MS); settings: 2 µM
[13] = The drug is tested on Eubacterium hallii strain: DSM3353 for biotransformation. The drug concentrations were measured before and after a 12-h incubation by liquid-chromatography-coupled mass spectrometry (LC–MS); settings: anaerobutyricum hallii, 2 µM
[14] = The drug is tested on Ruminococcus gnavus strain: ATCC29149 for biotransformation. The drug concentrations were measured before and after a 12-h incubation by liquid-chromatography-coupled mass spectrometry (LC–MS); settings: mediterraneibacter gnavus, 2 µM
[15] = The drug is tested on Ruminococcus lactaris strain: ATCC29176 for biotransformation. The drug concentrations were measured before and after a 12-h incubation by liquid-chromatography-coupled mass spectrometry (LC–MS); settings: 2 µM
[16] = The drug is tested on Providencia rettgeri strain: DSM1131 for biotransformation. The drug concentrations were measured before and after a 12-h incubation by liquid-chromatography-coupled mass spectrometry (LC–MS); assay type: ADME; design: dose 2 uM, timepoint 0 vs 12 hours; settings: 2 µM
[17] = bifidobacterium adolescentis, 12 h, 2 µM
Description: The drug is tested on Bifidobacterium adolescentis strain: ATCC 15703 for biotransformation. The drug concentrations were measured before and after a 12-h incubation by liquid-chromatography-coupled mass spectrometry (LC–MS)

[18] = bacteroides intestinalis, 12 h, 2 µM
Description: The drug is tested on Bacteroides intestinalis strain: DSM17393 for biotransformation. The drug concentrations were measured before and after a 12-h incubation by liquid-chromatography-coupled mass spectrometry (LC–MS)

[19] = bacteroides thetaiotaomicron, 12 h, 2 µM
Description: The drug is tested on Bacteroides thetaiotaomicron strain: VPI-5482 for biotransformation. The drug concentrations were measured before and after a 12-h incubation by liquid-chromatography-coupled mass spectrometry (LC–MS)

[20] = anaerostipes sp., 12 h, 2 µM
Description: The drug is tested on Anaerostipes sp. strain: fecal isolate for biotransformation. The drug concentrations were measured before and after a 12-h incubation by liquid-chromatography-coupled mass spectrometry (LC–MS)

SMILES | Bacterial Biotransformation [1] | Bacterial Biotransformation [2] | Bacterial Biotransformation [3] | Bacterial Biotransformation [4] | Bacterial Biotransformation [5] | Bacterial Biotransformation [6] | Bacterial Biotransformation [7] | Bacterial Biotransformation [8] | Bacterial Biotransformation [9] | Bacterial Biotransformation [10] | Bacterial Biotransformation [11] | Bacterial Biotransformation [12] | Bacterial Biotransformation [13] | Bacterial Biotransformation [14] | Bacterial Biotransformation [15] | Bacterial Biotransformation [16] | Bacterial Biotransformation [17] | Bacterial Biotransformation [18] | Bacterial Biotransformation [19] | Bacterial Biotransformation [20]
C#C[C@]1(O)CC[C@H]2[C@@H]3CCC4=Cc5oncc5C[C@]4(C)[C@H]3CC[C@@]21C [DANAZOL] | Compound metabolized | Compound metabolized | Compound metabolized | Compound metabolized | Compound NOT metabolized | Compound metabolized | Compound metabolized | Compound metabolized | Compound metabolized | Compound metabolized | Compound metabolized | Compound metabolized | Compound metabolized | Compound metabolized | Compound metabolized | Compound metabolized | Compound metabolized | Compound metabolized | Compound metabolized | Compound metabolized
O=C(O)c1cc(/N=N/c2ccc(S(=O)(=O)Nc3ccccn3)cc2)ccc1O [SULFASALAZINE] | Compound metabolized | Compound metabolized | Compound metabolized | Compound metabolized | Compound NOT metabolized | Compound metabolized | Compound metabolized | Compound metabolized | Compound metabolized | Compound metabolized | Compound metabolized | Compound metabolized | Compound metabolized | Compound metabolized | Compound metabolized | Compound NOT metabolized | Compound metabolized | Compound metabolized | Compound metabolized | Compound metabolized
CC(=O)Nc1ccc(OC(C)=O)cc1 [DIACETAMATE] | Compound metabolized | Compound metabolized | Compound metabolized | Compound metabolized | Compound metabolized | Compound metabolized | Compound metabolized | Compound metabolized | Compound metabolized | Compound metabolized | Compound metabolized | Compound metabolized | Compound metabolized | Compound metabolized | Compound metabolized | Compound metabolized | Compound metabolized | Compound metabolized | Compound metabolized | Compound metabolized
CCS(=O)(=O)CCn1c([N+](=O)[O-])cnc1C [TINIDAZOLE] | Compound metabolized | Compound metabolized | Compound metabolized | Compound metabolized | Compound NOT metabolized | Compound metabolized | Compound metabolized | Compound metabolized | Compound metabolized | Compound metabolized | Compound metabolized | Compound metabolized | Compound metabolized | Compound metabolized | Compound metabolized | Compound NOT metabolized | Compound metabolized | Compound metabolized | Compound metabolized | Compound metabolized
